The values that follow come from paper PMC13210772, “Dual FLT3/MAPK14 Proteolysis-Targeting Chimera (PROTAC) Induces Potent Acute Myeloid Leukemia Cell Death” (Pharmaceuticals, 2026).

One assay concerns MV4-11. Further details: method as in PMID 30427680, PMID 34959180, PMID 34694800, PMID 36332882, PMID 38655686. To be noted: reported FLT3 PROTACs, Figure 1; cited from earlier work.
In another assay the test system is MOLM-14. Also noted: method as in PMID 36518702. To be noted: reported FLT3 PROTAC, Figure 1; cited from earlier work.
Assay [1] has as its system FLT3-ITD. In words: KINOMEscan binding assay. As for the experimental part:
Binding to FLT3-ITD was determined using the KINOMEscan^TM assay (Eurofins DiscoverX Corporation, San Diego, CA, USA)
Kinase-tagged T7 phage strains were prepared in an E. coli host derived from the BL21 strain. E. coli were grown to log-phase and infected with T7 phage and incubated with shaking at 32 °C until lysis. The lysates were centrifuged and filtered to remove cell debris. The remaining kinases were produced in HEK-293 cells and subsequently tagged with DNA for qPCR detection. […] The liganded beads were blocked with excess biotin and washed with blocking buffer (SeaBlock (Pierce), 1% BSA, 0.05% Tween 20, 1 mM DTT) to remove unbound ligand and to reduce non-specific binding. […] The compounds were then diluted directly into the assays such that the final concentration of DMSO was 0.9%. All reactions performed in polypropylene 384-well plate. Each was a final volume of 0.02 mL. […] The kinase concentration in the eluates was measured by qPCR.

Assay [2] deals with T1, FLT3-ITD (Homo sapiens, UniProt P36888, INS600HVDFREYEYD).
T1 sequence (P36888 with tags, fused parts or gaps INS600HVDFREYEYD): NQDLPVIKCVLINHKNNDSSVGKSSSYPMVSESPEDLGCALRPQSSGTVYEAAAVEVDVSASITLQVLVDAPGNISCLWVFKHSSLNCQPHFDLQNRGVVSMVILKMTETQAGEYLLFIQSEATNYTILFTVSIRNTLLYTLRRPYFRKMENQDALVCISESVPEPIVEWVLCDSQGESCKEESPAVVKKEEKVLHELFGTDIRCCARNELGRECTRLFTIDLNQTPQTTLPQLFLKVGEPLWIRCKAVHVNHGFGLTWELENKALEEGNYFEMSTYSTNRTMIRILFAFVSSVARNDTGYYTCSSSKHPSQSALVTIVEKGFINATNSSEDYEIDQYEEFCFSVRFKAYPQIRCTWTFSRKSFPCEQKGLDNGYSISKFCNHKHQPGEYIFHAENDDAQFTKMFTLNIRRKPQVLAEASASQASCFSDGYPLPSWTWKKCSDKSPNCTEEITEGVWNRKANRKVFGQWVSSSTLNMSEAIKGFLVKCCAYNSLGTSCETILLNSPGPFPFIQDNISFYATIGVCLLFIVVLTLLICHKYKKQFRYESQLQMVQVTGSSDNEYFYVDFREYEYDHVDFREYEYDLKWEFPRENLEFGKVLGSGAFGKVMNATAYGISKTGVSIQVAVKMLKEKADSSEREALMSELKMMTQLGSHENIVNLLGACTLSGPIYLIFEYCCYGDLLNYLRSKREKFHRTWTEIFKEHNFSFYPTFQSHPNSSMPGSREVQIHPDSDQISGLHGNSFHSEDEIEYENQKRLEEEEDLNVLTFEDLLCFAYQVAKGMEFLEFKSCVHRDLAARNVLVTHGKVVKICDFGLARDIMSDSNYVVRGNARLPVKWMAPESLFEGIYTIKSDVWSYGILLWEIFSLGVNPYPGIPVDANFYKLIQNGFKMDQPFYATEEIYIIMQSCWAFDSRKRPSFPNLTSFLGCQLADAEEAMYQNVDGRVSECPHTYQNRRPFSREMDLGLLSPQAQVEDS
In words: FLT3-ITD degradation, immunoblot in MV4-11 cells. To be noted: MV4-11 cells, 50 nM, 24 h.

Assay [3] has as its target T2, MAPK14 (Homo sapiens, UniProt Q16539). In words: MAPK14 degradation, immunoblot in leukemia cells. The class given is cell-based. Also noted: endogenous in cells; host or cells: K562, RS4-11, MV4-11, MOLM-13 (A17); MV4-11 (A20). To be noted: K562, RS4-11, MV4-11 and MOLM-13 cells; 50 nM MA191, 24 h.
Assay [4] concerns the target T2, MAPK14. In words: Phosphorylation of MAPK14, immunoblot in MV4-11 cells. The class given is cell-based. Also noted: endogenous in cells; host or cells: K562, RS4-11, MV4-11, MOLM-13 (A17); MV4-11 (A20).
Assay [5] deals with T1, FLT3-ITD. In words: Phosphorylation of FLT3-ITD, immunoblot in MV4-11 cells. Type of assay: cell-based. Further details: We treated MV4-11 cells with the synthesized degraders of FLT3; endogenous in cells; host or cells: MV4-11. An excerpt: We aimed to delineate if the FLT3 inhibitor part of MA191 acts as a MAPK14 inhibitor in MV4-11 cells. We used the phosphorylation of FLT3-ITD and the phosphorylation of MAPK14 as markers for their activation. […] This finding is consistent with the detection of MAPK14 in the kinase selectivity profiling approach (Figure 3; MAPK14 is termed p38α therein).
(§1) Figure 7 Targeting MAPK14 augments anti-leukemic effects of an inhibition of FLT3-ITD. (a) The graphs show the mRNA levels of MAPK14 in leukemia cells and normal blood cells. […] All immunoblots show data from at least two independent repetitions. (c) Model for how inhibition of various signaling pathways affects AML cells (red, cytoplasm, blue, nucleus).

In the next assay the test system is HL-60. Further details: method as in PMID 36332882. The conditions noted are these: reported FLT3 PROTAC, Figure 1; cited from earlier work.
The next assay relates to caspase-3. In words: Caspase-3 cleavage, immunoblot in MV4-11 cells. Type of assay: cell-based, human.
Excerpt: The usefulness of a combined inhibition of FLT3-ITD and MAPK14 through depletion may also be effective against leukemia stem cells that require cytokines signaling through MAPK14 [48]. Further studies are necessary to test this idea.
as §1

T2 sequence (Q16539 2-360 limits assumed): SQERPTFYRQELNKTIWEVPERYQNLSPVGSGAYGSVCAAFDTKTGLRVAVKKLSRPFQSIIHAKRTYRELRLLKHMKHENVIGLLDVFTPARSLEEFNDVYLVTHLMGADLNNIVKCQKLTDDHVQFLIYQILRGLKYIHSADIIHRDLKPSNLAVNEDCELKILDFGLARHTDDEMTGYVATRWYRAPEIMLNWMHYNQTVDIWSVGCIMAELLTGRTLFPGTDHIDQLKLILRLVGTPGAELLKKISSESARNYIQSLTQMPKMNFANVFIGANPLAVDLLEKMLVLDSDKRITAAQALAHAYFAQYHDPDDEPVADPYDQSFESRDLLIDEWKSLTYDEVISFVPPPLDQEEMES

Consider `CCc1nc(C(N)=O)c(Nc2ccc(N3CCC(N4CCN(CC5CCN(C(=O)CCOCCOCCNc6cccc7c6C(=O)N(C6CCC(=O)NC6=O)C7=O)CC5)CC4)CC3)c(OC)c2)nc1NC1CCOCC1` (centres unmarked) [CRBN(FLT3)-8], for which the IC50 is 0.9 nM in the assay with MV4-11 and 2.8 nM in the assay with MOLM-14.

As for `Cc1ncsc1-c1ccc([C@H](C)NC(=O)[C@H]2C[C@H](O)CN2C(=O)[C@@H](NC(=O)[C@H]2CC[C@H](C(=O)N3CCN(CCNC(=O)c4cc(Oc5ccc(NC(=O)Nc6cc(C(C)(C)C)on6)cc5)ccn4)CC3)CC2)C(C)(C)C)cc1` [MA225, 4-(4-(3-(5-(tert-Butyl)isoxazol-3-yl)ureido)phenoxy)-N-(2-(4-(trans-4-(((S)-1-((2R,4S)-4-hydroxy-2-(((S)-1-(4-(4-methylthiazol-5-yl)phenyl)ethyl)carbamoyl)pyrrolidin-1-yl)-3,3-dimethyl-1-oxobutan-2-yl)carbamoyl)cyclohexanecarbonyl)piperazin-1-yl)ethyl)picolinamide], the “% FLT3-ITD Binding at 1 µM” value in the assay with FLT3-ITD [1] was determined as 97 ± 2%. On FLT3-ITD [2], the “% FLT3-ITD Degradation at 50 nM” value was “No effect”; the “FLT3-ITD degradation” value is “did not reduce the levels of FLT3-ITD and MAPK14”. In addition, the “MAPK14 protein level, immunoblot” value on MAPK14 [3] is “did not reduce the levels of FLT3-ITD and MAPK14”. For the same compound, the “phosphorylated MAPK14 (p-MAPK14)” value on MAPK14 [4] was “weak inhibition of phosphorylated MAPK14”. Further, on FLT3-ITD [5], the “phosphorylation of FLT3-ITD” value is on record as “inhibited the phosphorylation of FLT3-ITD”.

Turning to `Cc1ncsc1-c1ccc(CNC(=O)[C@@H]2C[C@@H](O)CN2C(=O)[C@@H](NC(=O)COCCOCCNC(=O)c2c(C)[nH]c(/C=C3\C(=O)Nc4ccc(F)cc43)c2C)C(C)(C)C)cc1` [PROTAC5], the IC50 in the assay with HL-60 is 2900 ± 1500 nM.

For the compound `Cc1ccc(-n2nc(C(C)(C)C)cc2NC(=O)Nc2ccc(OCCN3CCOCC3)c3ccccc23)cc1` [doramapimod, reference compound], the caspase-3 cleavage entry in the assay on caspase-3 is “did not induce caspase-3 cleavage”. Also, at FLT3-ITD [5], the “phosphorylation of FLT3-ITD” value is “did not affect FLT3-ITD and its activity”.
